We go through one compound from ChEMBL document CHEMBL3638619, “Oxazole and thiazole compounds as KSP inhibitors” (2014).

Each structure is given as a SMILES string.

This assay has as its target T1, Kinesin-like protein KIF11 (Homo sapiens, UniProt P52732).
T1 sequence (P52732 whole entry): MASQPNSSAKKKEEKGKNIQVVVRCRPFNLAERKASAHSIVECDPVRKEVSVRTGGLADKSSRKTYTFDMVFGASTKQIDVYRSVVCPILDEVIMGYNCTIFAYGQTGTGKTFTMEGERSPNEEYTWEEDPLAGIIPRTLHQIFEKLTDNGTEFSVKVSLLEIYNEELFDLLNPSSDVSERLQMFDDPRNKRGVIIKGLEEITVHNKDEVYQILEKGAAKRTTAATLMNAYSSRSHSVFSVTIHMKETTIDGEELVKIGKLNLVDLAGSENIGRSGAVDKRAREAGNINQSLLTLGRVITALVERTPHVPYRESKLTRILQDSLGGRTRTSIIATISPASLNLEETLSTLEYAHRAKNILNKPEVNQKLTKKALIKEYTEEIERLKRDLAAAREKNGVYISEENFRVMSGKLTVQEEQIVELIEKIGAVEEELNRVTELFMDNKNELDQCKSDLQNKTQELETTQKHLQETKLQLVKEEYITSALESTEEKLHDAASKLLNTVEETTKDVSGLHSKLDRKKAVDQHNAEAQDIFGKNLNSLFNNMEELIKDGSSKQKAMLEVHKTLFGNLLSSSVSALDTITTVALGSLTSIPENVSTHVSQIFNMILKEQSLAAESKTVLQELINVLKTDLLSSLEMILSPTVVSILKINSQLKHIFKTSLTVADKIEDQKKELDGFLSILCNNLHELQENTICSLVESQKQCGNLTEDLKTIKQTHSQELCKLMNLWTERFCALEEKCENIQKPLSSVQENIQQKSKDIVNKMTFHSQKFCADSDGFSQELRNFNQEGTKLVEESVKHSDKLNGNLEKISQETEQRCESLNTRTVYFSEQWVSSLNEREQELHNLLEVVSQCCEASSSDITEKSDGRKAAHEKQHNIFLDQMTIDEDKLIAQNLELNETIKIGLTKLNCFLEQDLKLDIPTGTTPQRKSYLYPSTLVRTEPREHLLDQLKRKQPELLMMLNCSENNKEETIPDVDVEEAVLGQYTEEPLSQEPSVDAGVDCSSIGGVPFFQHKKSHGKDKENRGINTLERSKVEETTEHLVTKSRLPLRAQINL
Nature of the assay: In Vitro Assay: This example provides a representative in vitro assay for determining KSP activity in vitro. Purified microtubules obtained from bovine brain were purchased from Cytoskeleton Inc. (Denver, Colo., USA). The motor domain of human KSP (Eg 5, KNSL1) was cloned, expressed, and purified to greater than 95% homogeneity. Biomol Green was purchased from Affinity Research Products Ltd. (Matford Court, Exeter, Devon, United Kingdom). Microtubules and KSP motor protein (i.e., the KSP motor domain) were diluted in assay buffer (20 mM Tris-HCl (pH 7.5), 1 mM MgCl2, 10 mM DTT and 0.25 mg/mL BSA) to a final concentration of 35 μg/mL microtubules and 45 nM KSP. The microtubule/KSP mixture was then pre-incubated at 37 C. for 10 min to promote the binding of KSP to microtubules.

As to `C[C@H](O)C(=O)N(CC[C@H](N)CF)[C@H](c1nc(-c2cc(F)ccc2F)sc1Cc1ccccc1)C(C)(C)C`, the half-maximal inhibitory concentration (IC50) amounted to 216 nM.
